Data published in patent US8247211B2, “Glycopeptide antibiotics” (American Cyanamid Company, priority 2001, dated 2012).
≈ marks a conversion by molar mass, not a printed value.

Legend:
Experiment in all cases: In vitro antibacterial evaluation: minimum inhibitory concentration (MIC), broth dilution method
Type in all cases: cell-based
Conditions in all cases: 18 hours at 35° C.
Enterococcus sp. = system: Enterococcus sp.
Procedure, shortened: (§1)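 Using Muller-Hinton II […] and an inoculum of 5×10^5 CFU/mL, antibiotic dilutions from 64 down to 0.06 μg/mL were tested following NCCLS M7-A2. The MIC is the lowest concentration inhibiting growth, including in methicillin-, penicillin- or vancomycin-resistant clinical isolates.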

Escherichia coli = system: Escherichia coli
Procedure, shortened: as §1

Staphylococcus sp. = system: Staphylococcus sp.
Procedure, shortened: as §1

Streptococcus sp. = system: Streptococcus sp.
Procedure, shortened: as §1

[1] = broth dilution, inoculum 5×10^5 CFU/mL

- MIC Enterococcus avium (GC 4558) (Enterococcus sp.; Enterococcus avium (GC 4558)): 8 µg/mL (≈ 5.26 µM)
- MIC Enterococcus faecalis (ATCC 29212) (Enterococcus sp.; Enterococcus faecalis (ATCC 29212)): 8 µg/mL (≈ 5.26 µM)
- MIC Enterococcus faecalis (GC 2242) (Enterococcus sp.; Enterococcus faecalis (GC 2242)): 8 µg/mL (≈ 5.26 µM)
- MIC Enterococcus faecalis (GC 2691) (Enterococcus sp.; Enterococcus faecalis (GC 2691)): 8 µg/mL (≈ 5.26 µM)
- MIC Enterococcus faecalis (GC 3059) (Enterococcus sp.; Enterococcus faecalis (GC 3059)): 8 µg/mL (≈ 5.26 µM)
- MIC Enterococcus faecalis (GC 4552) (Enterococcus sp.; Enterococcus faecalis (GC 4552)): 8 µg/mL (≈ 5.26 µM)
- MIC Enterococcus faecalis (GC 4553) (Enterococcus sp.; Enterococcus faecalis (GC 4553)): 8 µg/mL (≈ 5.26 µM)
- MIC Enterococcus faecalis (GC 4554) (Enterococcus sp.; Enterococcus faecalis (GC 4554)): 16 µg/mL (≈ 10.5 µM)
- MIC Enterococcus faecalis (GC 6189) (Enterococcus sp.; Enterococcus faecalis (GC 6189)): 8 µg/mL (≈ 5.26 µM)
- MIC Enterococcus faecium (GC 2243) (Enterococcus sp.; Enterococcus faecium (GC 2243)): 8 µg/mL (≈ 5.26 µM)
- MIC Enterococcus faecium (GC 4556) (Enterococcus sp.; Enterococcus faecium (GC 4556)): 8 µg/mL (≈ 5.26 µM)
- MIC Enterococcus faecium (GC 4557) (Enterococcus sp.; Enterococcus faecium (GC 4557)): 4 µg/mL (≈ 2.63 µM)
- MIC Enterococcus faecalis (GC 2242) (Enterococcus sp.; [1]): 8 µg/mL (≈ 5.26 µM)
- MIC Enterococcus faecalis (GC 2691) (Enterococcus sp.; [1]): 8 µg/mL (≈ 5.26 µM)
- MIC Enterococcus faecalis (GC 3059) (Enterococcus sp.; [1]): 8 µg/mL (≈ 5.26 µM)
- MIC Escherichia coli (ATCC 25922) (Escherichia coli; Escherichia coli (ATCC 25922)): >64 µg/mL
- MIC Escherichia coli (GC 4559) (Escherichia coli; Escherichia coli (GC 4559)): >64 µg/mL
- MIC Escherichia coli (GC 4560) (Escherichia coli; Escherichia coli (GC 4560)): 2 µg/mL (≈ 1.31 µM)
- MIC Coagulase Negative Staphylococcus (GC 4547) (Staphylococcus sp.; Coagulase Negative Staphylococcus (GC 4547)): 2 µg/mL (≈ 1.31 µM)
- MIC Coagulase Negative Staphylococcus (GC 4548) (Staphylococcus sp.; Coagulase Negative Staphylococcus (GC 4548)): 1 µg/mL (≈ 0.657 µM)
- MIC Coagulase Negative Staphylococcus (GC 4549) (Staphylococcus sp.; Coagulase Negative Staphylococcus (GC 4549)): 2 µg/mL (≈ 1.31 µM)
- MIC Coagulase Negative Staphylococcus (GC 4551) (Staphylococcus sp.; Coagulase Negative Staphylococcus (GC 4551)): 2 µg/mL (≈ 1.31 µM)
- MIC Coagulase Negative Staphylococcus (GC 6257) (Staphylococcus sp.; Coagulase Negative Staphylococcus (GC 6257)): 2 µg/mL (≈ 1.31 µM)
- MIC Staphylococcus aureus (ATCC 29213) (Staphylococcus sp.; Staphylococcus aureus (ATCC 29213)): 4 µg/mL (≈ 2.63 µM)
- MIC Staphylococcus aureus (GC 1131) (Staphylococcus sp.; Staphylococcus aureus (GC 1131)): 4 µg/mL (≈ 2.63 µM)
- MIC Staphylococcus aureus (GC 3051) (Staphylococcus sp.; Staphylococcus aureus (GC 3051)): 2 µg/mL (≈ 1.31 µM)
- MIC Staphylococcus aureus (GC 3053) (Staphylococcus sp.; Staphylococcus aureus (GC 3053)): 4 µg/mL (≈ 2.63 µM)
- MIC Staphylococcus aureus (GC 4541) (Staphylococcus sp.; Staphylococcus aureus (GC 4541)): 4 µg/mL (≈ 2.63 µM)
- MIC Staphylococcus aureus (GC 4542) (Staphylococcus sp.; Staphylococcus aureus (GC 4542)): 4 µg/mL (≈ 2.63 µM)
- MIC Staphylococcus aureus (GC 4544) (Staphylococcus sp.; Staphylococcus aureus (GC 4544)): 4 µg/mL (≈ 2.63 µM)
- MIC Staphylococcus aureus (GC 4545) (Staphylococcus sp.; Staphylococcus aureus (GC 4545)): 4 µg/mL (≈ 2.63 µM)
- MIC Staphylococcus aureus-SMITH (GC 4543) (Staphylococcus sp.; Staphylococcus aureus-SMITH (GC 4543)): 2 µg/mL (≈ 1.31 µM)
- MIC Streptococcus agalactiae (GC 4564) (Streptococcus sp.; Streptococcus agalactiae (GC 4564)): 1 µg/mL (≈ 0.657 µM)
- MIC Streptococcus pneumoniae (ATCC 6301) (Streptococcus sp.; Streptococcus pneumoniae (ATCC 6301)): 0.25 µg/mL (≈ 0.164 µM)
- MIC Streptococcus pneumoniae (GC 1894) (Streptococcus sp.; Streptococcus pneumoniae (GC 1894)): <0.06 µg/mL
- MIC Streptococcus pneumoniae (GC 4565) (Streptococcus sp.; Streptococcus pneumoniae (GC 4565)): 0.25 µg/mL (≈ 0.164 µM)
- MIC Streptococcus pyogenes (GC 4563) (Streptococcus sp.; Streptococcus pyogenes (GC 4563)): 2 µg/mL (≈ 1.31 µM)
- MIC Streptococcus agalactiae (GC 4564) (Streptococcus sp.; [1]): 1 µg/mL (≈ 0.657 µM)
- MIC Streptococcus pneumoniae (ATCC 6301) (Streptococcus sp.; [1]): 0.25 µg/mL (≈ 0.164 µM)
- MIC Streptococcus pneumoniae (GC 1894) (Streptococcus sp.; [1]): <0.06 µg/mL
- MIC Streptococcus pneumoniae (GC 4565) (Streptococcus sp.; [1]): 0.25 µg/mL (≈ 0.164 µM)
- MIC Streptococcus pyogenes (GC 4563) (Streptococcus sp.; [1]): 2 µg/mL (≈ 1.31 µM)
Structure (SMILES): COc1ccc(COC2C(CO)OC(OC3C(CO)OC(Oc4ccc(CC5NC(=O)C(C(C)c6ccccc6)NC(=O)CNC(=O)C(CO)NC(=O)C(C(O)C6CNC(=N)N6C6OC(CO)C(O)C(O)C6O)NC(=O)C(C(O)C6CNC(=N)N6)NC5=O)cc4)C(O)C3O)C(O)C2O)cc1OCc1ccccc1 (stereo not drawn) [Example 239a, Cyclo[glycyl-β-methylphenylalanyl-O-[4-O-[4-O-[4-methoxy-3-(phenylmethoxy)benzyl]-hexopyranosyl]hexopyranosyl]tyrosyl-3-(2-iminoimidazolidin-4-yl)seryl-3-(3-hexopyranosyl-2-iminoimidazolidin-4-yl)serylseryl]]
- MIC Staphylococcus haemolyticus (GC 4546) (Staphylococcus sp.; Staphylococcus haemolyticus (GC 4546)): 2 µg/mL (≈ 1.31 µM)
